Assay results taken from ChEMBL document CHEMBL1156660, “Alkaloids from the mushroom Pseudobaeospora pyrifera, pyriferines A-C” (J Nat Prod, 2008).

Molecular target: Acetylcholinesterase (Homo sapiens) (UniProt P22303)
Assay: Inhibition of acetylcholinesterase at 100 uM by chemiluminescence method

Sequence of Acetylcholinesterase (Homo sapiens) (P22303 whole entry): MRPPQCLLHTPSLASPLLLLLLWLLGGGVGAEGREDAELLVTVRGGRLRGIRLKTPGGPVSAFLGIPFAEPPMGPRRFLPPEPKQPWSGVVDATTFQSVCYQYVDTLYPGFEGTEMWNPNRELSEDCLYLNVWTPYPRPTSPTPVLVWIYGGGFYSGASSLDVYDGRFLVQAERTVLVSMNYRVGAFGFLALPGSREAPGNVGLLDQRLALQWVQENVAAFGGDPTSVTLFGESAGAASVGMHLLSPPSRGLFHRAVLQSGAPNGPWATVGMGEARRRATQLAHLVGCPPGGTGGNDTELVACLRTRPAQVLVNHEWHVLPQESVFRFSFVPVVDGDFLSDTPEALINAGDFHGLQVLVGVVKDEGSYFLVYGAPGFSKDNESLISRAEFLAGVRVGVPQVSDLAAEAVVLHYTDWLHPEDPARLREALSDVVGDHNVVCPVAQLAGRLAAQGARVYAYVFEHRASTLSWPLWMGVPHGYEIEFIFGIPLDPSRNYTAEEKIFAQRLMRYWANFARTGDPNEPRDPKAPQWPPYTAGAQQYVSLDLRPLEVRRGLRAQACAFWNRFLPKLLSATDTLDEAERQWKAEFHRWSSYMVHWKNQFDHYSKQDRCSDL

Structure (SMILES) | inhibition [%]
CO[C@@H]1CC[C@](C)(O)C(C(=O)C2(C)NC(=O)CC[C@H](N)C(=O)O2)=C1O (some centres not stated) | 20
C=C1CC[C@@H](OC)C(O)=C1C(=O)C1(C)NC(=O)CC[C@H](N)C(=O)O1 (some centres not stated) | 7
